Laboratory results: ChEMBL document CHEMBL1158808, “Eunicellin-based diterpenoids, australins A-D, isolated from the soft coral Cladiella australis” (2005)
In brackets after ≈: the same amount, converted by molar mass.

Experiments:
Format in all cases: functional
MDA-MB-231 = test: Cytotoxicity against human MDA-MB-231 cells after 6 days by MTT assay; settings: MDA-MB-231, 144 h, read-out: ED50 (the source's name)
MCF7 = test: Cytotoxicity against human MCF7 cells after 6 days by MTT assay; settings: MCF7, 144 h, read-out: ED50 (the source's name)
HepG2 = test: Cytotoxicity against human HepG2 cells after 6 days by MTT assay in presence of DMEM12; settings: HepG2, 144 h, read-out: ED50 (the source's name)

Question: How did the EC50 (MDA-MB-231) turn out when C=C1C[C@@]2(O)O[C@H]([C@@H]3[C@@H](C(C)C)CC[C@@](C)(OC(=O)CCC)[C@@H]32)[C@](C)(O)CC[C@@H]1OC(C)=O [AUSTARLIN B] was run?
Answer: 6.4 mg/L (≈ 13.7 µM)

Question: And the EC50 (MCF7)?
Answer: 8.6 mg/L (≈ 18.4 µM)

Question: And the EC50 (HepG2)?
Answer: 2.4 mg/L

Question: For C=C1CC[C@H]([C@@H](C)CO)[C@@H]2[C@H]1C(=O)C[C@@](C)(O)[C@H]1CC[C@@](C)(OC(=O)CCC)[C@@H]2O1 [AUSTARLIN D], which EC50 (MDA-MB-231) is on record?
Answer: 24.4 mg/L (≈ 57.7 µM)
